# Measured values reported in patent US11634447B2 (priority 2012, dated 2023).
# “And” between values parts separate entries of the source, which are not always exact repeats. Equal values may be shown once.
# Target: T1, FimH-CRD (Escherichia coli, UniProt P08191)
# T1 construct: The first 177 amino acids of the FimH protein are expressed as a fusion protein; thrombin tag (printed as 'fusion protein with thrombin') (cleaved yes); made in house; host or cells: bacteria (pET21b plasmid)
# Experiment: Competitive binding assay by fluorescence polarization, assay 1 (compounds prepared by manual dilution)
# Parameters: species or system E. coli
# Settings: Assay 1 Kd, 5 nM Alexa 647 mannoside probe, 60 nM FimH-CRD, replicate values in one cell
# Description: The first 177 amino acids of the FimH protein are expressed as a fusion protein with thrombin in a pET21b plasmid in bacteria. This FimH protein sequence contains the carbohydrate recognition domain (CRD) and shall be termed FimH-CRD. Following bacterial expression of the protein, the FimH-CRD protein is purified to homogeneity and the thrombin tag removed by protease cleavage. A competitive binding assay by fluorescence polarization is performed using 5 nM of the Alexa 647 mannoside probe and 60 nM of the FimH-CRD. The samples are assayed in a low volume 384 well microtiter plate in a final volume of 20 μl. The final assay buffer conditions are the following, 50 mM Tris-Cl, ph 7.0, 100 mM NaCl, 1 mM EDTA, 5 mM β-mercaptoethanol, 0.05% BSA and 2.5% DMSO. Two assays are performed for FimH, termed assay 1 or assay 2. The assay conditions are the same for both assays except the following: assay 1 has compounds prepared by manual dilution in a serial dilution factor with 12-point dose response while assay 2 has compounds prepared by a robotics system also through a serial dilution factor (12 point dose response) and initially prepared in duplicate in 384 well-Corning polypropylene round bottom plates. The assay 2 plates have compound which is then frozen and must be thawed prior to use. Initially the Alexa 647 probe and the FimH-CRD are added to the assay buffer and then 0.5 μl of test compound (assay 1 or 2) between 0.4 nM to 75 μM final concentration are added (12 point titration with 3-fold serial dilution). Control wells for the Alexa 647 probe are prepared with the same conditions except for the addition of the FimH-CRD protein. Plates are then incubated for 5 hrs at room temperature in the dark and under humid conditions to prevent drying. Plates are read using the SpectraMax Paradigm multi-mode plate reader and the appropriate fluorescent polarization detection cartridge (Alexa-647).
# Alexa 647 mannoside probe is prepared using the similar procedure reported for FAM mannoside (Han, Z. et. al., 2010, J. Med. Chem., 53, 4779) and is described in the scheme below.
# To a blue colored stirred solution of (2S,3S,4S,5S,6R)-2-(4-aminobutoxy)-6-(hydroxymethyl)tetrahydropyran-3,4,5-triol (2.21 mg, 0.009 mmol) and the (2E)-2-[(2E,4E)-5-[3,3-dimethyl-5-sulfonato-1-(3-sulfonatopropyl)indol-1-ium-2-yl]penta-2,4-dienylidene]-3-[6-(2,5-dioxopyrrolidin-1-yl)oxy-6-oxo-hexyl]-3-methyl-1-(3-sulfonatopropyl)indoline-5-sulfonate (Potassium Ion (3)) (4.9 mg, 0.0044 mmol) in DMF (44 μL) is added Et3N (5.4 mg, 7.0 μL, 0.053 mmol) at RT. The solution is stirred at room temperature over night, concentrated, dissolved in water and purified on 12 g C-18 silica gel cartridge on Isolera system using acetonitrile in water (0 to 40%, 10 CV) and followed by lyophilization to afford Alexa 647 mannoside probe (3.3 mg, 34%) as deep blue solid.
# The Kd values of the compounds are determined from dose response curves using twelve concentrations per compound in duplicate. Curves are fitted to data points using Fluorescence Polarization competitive displacement analysis, and Kds are interpolated from the resulting curves using GraphPad Prism software, version […] (GraphPad software Inc., San Diego, Calif., USA).
# T1 sequence (P08191 22-177): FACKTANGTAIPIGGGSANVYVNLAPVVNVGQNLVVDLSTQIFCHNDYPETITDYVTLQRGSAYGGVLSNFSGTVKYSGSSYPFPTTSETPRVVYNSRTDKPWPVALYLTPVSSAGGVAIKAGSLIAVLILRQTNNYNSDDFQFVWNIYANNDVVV
row,SMILES,Kd
1,"O=C(Nc1ccc([C@H]2O[C@H](CO)[C@@H](O)[C@H](O)[C@@H]2O)cc1)c1cccc([C@H]2O[C@H](CO)[C@@H](O)[C@H](O)[C@@H]2O)c1 [Compound 39, (3-[(2R,3S,4R,5S,6R)-3,4,5-Trihydroxy-6-(hydroxymethyl)tetrahydropyran-2-yl]-N-[4-[(2R,3S,4R,5S,6R)-3,4,5-trihydroxy-6-(hydroxymethyl)tetrahydropyran-2-yl]phenyl]benzamide)]",29 nM and 46 nM
2,"OC[C@H]1O[C@H](c2ccc(-c3cn([C@H]4O[C@H](CO)[C@@H](O)[C@H](O)[C@@H]4O)nn3)cc2)[C@@H](O)[C@@H](O)[C@@H]1O [Compound 21, ((2R,3S,4R,5S,6R)-2-(Hydroxymethyl)-6-(4-(1-((2S,3S,4S,5S,6R)-3,4,5-trihydroxy-6-(hydroxymethyl)tetrahydro-2H-pyran-2-yl)-1H-1,2,3-triazol-4-yl)phenyl)tetrahydro-2H-pyran-3,4,5-triol)]",< 5 nM (2×) and 9 nM
3,OC[C@H]1O[C@H](c2cc([C@H]3O[C@H](CO)[C@@H](O)[C@H](O)[C@@H]3O)cc(C(F)(F)F)c2)[C@@H](O)[C@@H](O)[C@@H]1O [Compound 3],51 nM and 40 nM
4,"OC[C@H]1O[C@H](n2cc(-c3ccc(-c4cn([C@H]5O[C@H](CO)[C@@H](O)[C@H](O)[C@@H]5O)nn4)cc3)nn2)[C@@H](O)[C@@H](O)[C@@H]1O [Compound 18, ((2R,3S,4S,5S,6S)-2-(Hydroxymethyl)-6-[4-[4-[1-[(2S,3S,4S,5S,6R)-3,4,5-trihydroxy-6-(hydroxymethyl)tetrahydropyran-2-yl]triazol-4-yl]phenyl]triazol-1-yl]tetrahydropyran-3,4,5-triol)]",1060 nM and 1020 nM
5,"OC[C@H]1O[C@H](C/C=C/c2ccc(C#Cc3ccc([C@H]4O[C@H](CO)[C@@H](O)[C@H](O)[C@@H]4O)cc3)cc2)[C@@H](O)[C@@H](O)[C@@H]1O [Compound 34, ((2R,3 S,4R,5S,6R)-2-(Hydroxymethyl)-6-[(E)-3-[4-[2-[4-[(2R,3S,4R,5S,6R)-3,4,5-trihydroxy-6-(hydroxymethyl)tetrahydropyran-2-yl]phenyl]ethynyl]phenyl]allyl]tetrahydropyran-3,4,5-triol)]",< 5 nM and 6 nM
6,"O=C(NCCCCCCCNC(=O)c1cccc([C@H]2O[C@H](CO)[C@@H](O)[C@H](O)[C@@H]2O)c1)c1cccc([C@H]2O[C@H](CO)[C@@H](O)[C@H](O)[C@@H]2O)c1 [Compound 13, (R,R,S,R,S)-N,N′-(Heptane-1,7-diyl)bis(3-((2R,3S,4R,5S,6R)-3,4,5-trihydroxy-6-(hydroxymethyl)tetrahydro-2H-pyran-2-yl)benzamide)]",17 nM and 12 nM
7,"O=C(C[C@H]1O[C@H](CO)[C@@H](O)[C@H](O)[C@@H]1O)Nc1ccc(NC(=O)C[C@H]2O[C@H](CO)[C@@H](O)[C@H](O)[C@@H]2O)cc1 [Compound 43, (2-[(2R,3S,4R,5S,6R)-3,4,5-Trihydroxy-6-(hydroxymethyl)tetrahydropyran-2-yl]-N-[4-[[2-[(2R,3S,4R,5,6R)-3,4,5-trihydroxy-6-(hydroxymethyl)tetrahydropyran-2-yl]acetyl]amino]phenyl]acetamide)]",20 nM and 27 nM
8,"O=C(NCCCCCCNC(=O)c1cccc([C@H]2O[C@H](CO)[C@@H](O)[C@H](O)[C@@H]2O)c1)c1cccc([C@H]2O[C@H](CO)[C@@H](O)[C@H](O)[C@@H]2O)c1 [Compound 12, (R,R,S,R,S)-N,N′-(Hexane-1,6-diyl)bis(3-((2R,3S,4R,5S,6R)-3,4,5-trihydroxy-6-(hydroxymethyl)tetrahydro-2H-pyran-2-yl)benzamide)]",14 nM and 18 nM
9,"OC[C@H]1O[C@H](Oc2cccc([C@H]3O[C@H](CO)[C@@H](O)[C@H](O)[C@@H]3O)c2)[C@@H](O)[C@@H](O)[C@@H]1O [Compound 17, ((2R,3S,4R,5S,6R)-2-(Hydroxymethyl)-6-[3-[(2R,3S,4S,5S,6R)-3,4,5-trihydroxy-6-(hydroxymethyl)tetrahydropyran-2-yl]oxyphenyl]tetrahydropyran-3,4,5-triol)]",< 5 nM and 6 nM
10,"O=C(NCCCCNC(=O)c1cccc([C@H]2O[C@H](CO)[C@@H](O)[C@H](O)[C@@H]2O)c1)c1cccc([C@H]2O[C@H](CO)[C@@H](O)[C@H](O)[C@@H]2O)c1 [Compound 10, (R,R,S,R,S)-N,N′-(Butane-1,4-diyl)bis(3-((2R,3S,4R,5S,6R)-3,4,5-trihydroxy-6-(hydroxymethyl)tetrahydro-2H-pyran-2-yl)benzamide)]",9 nM and 15 nM
11,C#CCN(Cc1cn([C@H]2O[C@H](CO)[C@@H](O)[C@H](O)[C@@H]2O)nn1)Cc1cn([C@H]2O[C@H](CO)[C@@H](O)[C@H](O)[C@@H]2O)nn1 [Compound 20],58 nM and 96 nM

# Test system: bacterial strain LF82 binding to the glycoprotein BSA-(Mannose)3
# Experiment: Bacterial Binding Assay (BBA)
# Format: cell-based, Escherichia coli
# Settings: read-out: Bacterial Binding Assay IC50, LF82/Luciferase strain binding to BSA-(Man)3 coated plates, luminescence
# Procedure, shortened: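 Inhibition of LF82/luciferase E. coli adhesion is read as luminescence after washing off unbound cells. Compound and bacteria (10^7 per well) are co-incubated 40-75 min at room temperature on wells coated with 0.5-2 μg/mL BSA-(Man)3, with BSA-only wells as background; IC50 values derived.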
row,SMILES,IC50 [nM]
1,"OC[C@H]1O[C@H](C#Cc2ccc3c(c2)C2(C[C@@H](O)[C@@H](O)C2)c2cc(C#C[C@H]4O[C@H](CO)[C@@H](O)[C@H](O)[C@@H]4O)ccc2-3)[C@@H](O)[C@@H](O)[C@@H]1O (stereo partly drawn) [Compound 194, (2R,3 S,4R,5S,6R)-2-[2-[(3R,4S)-3,4-Dihydroxy-7[2-[(2R,3 S,4R,5S,6R)-3,4,5-trihydroxy-6-(hydroxymethyl)tetrahydropyran-2-yl]ethynyl]spiro[cyclopentane-1,9fluorene]-2yl]ethynyl]-6-(hydroxymethyl)tetrahydropyran-3,4,5-triol]",0.27
2,Cc1cc([C@H]2O[C@H](CO)[C@@H](O)[C@H](O)[C@@H]2O)ccc1C#C[C@H]1O[C@H](CO)[C@@H](O)[C@H](O)[C@@H]1O [Compound 143],240
3,"CC(C)(c1ccc(C#C[C@H]2O[C@H](CO)[C@@H](O)[C@H](O)[C@@H]2O)cc1)c1ccc(C#C[C@H]2O[C@H](CO)[C@@H](O)[C@H](O)[C@@H]2O)cc1 [Compound 122, (2R,3S,4R,5S,6R)-2-(hydroxymethyl)-6-[2-[4-[1-methyl-1-[4-[2-[(2R,3S,4R,5S,6R)-3,4,5-trihydroxy-6-(hydroxymethyl)tetrahydropyran-2-yl]ethynyl]phenyl]ethyl]phenyl]ethynyl]tetrahydropyran-3,4,5-triol]",29
4,"OC[C@H]1O[C@H](C#Cc2ccc3c4ccc(C#C[C@H]5O[C@H](CO)[C@@H](O)[C@H](O)[C@@H]5O)cc4n(C4CCOCC4)c3c2)[C@@H](O)[C@@H](O)[C@@H]1O [Compound 184, (2R,3S,4R,5S,6R)-2-(hydroxymethyl)-6-[2-[9-tetrahydropyran-4-yl-7-[2-[(2R,3S,4R,5S,6R)-3,4,5-trihydroxy-6-(hydroxymethyl)tetrahydropyran-2-yl]ethynyl]carbazol-2-yl]ethynyl]tetrahydropyran-3,4,5-triol]",0.83
5,"OC[C@H]1O[C@H](C#Cc2ccc(C#C[C@H]3O[C@H](CO)[C@@H](O)[C@H](O)[C@@H]3O)c(F)c2F)[C@@H](O)[C@@H](O)[C@@H]1O [Compound 78, (2R,3S,4R,5S,6R)-2-[2-[2,3-difluoro-4-[2-[(2R,3S,4R,5S,6R)-3,4,5-trihydroxy-6-(hydroxymethyl)tetrahydropyran-2-yl]ethynyl]phenyl]ethynyl]-6-(hydroxymethyl)tetrahydropyran-3,4,5-triol]",63
6,"OC[C@H]1O[C@H](C#Cc2ccc3c(c2)C(F)(F)c2cc(C#C[C@H]4O[C@H](CO)[C@@H](O)[C@H](O)[C@@H]4O)ccc2-3)[C@@H](O)[C@@H](O)[C@@H]1O [Compound 116, (2R,3S,4R,5S,6R)-2-[2-[9,9-difluoro-7-[2-[(2R,3S,4R,5S,6R)-3,4,5-trihydroxy-6-(hydroxymethyl)tetrahydropyran-2-yl]ethynyl]fluoren-2-yl]ethynyl]-6-(hydroxymethyl)tetrahydropyran-3,4,5-triol]",8.1
